Test results taken from PubChem BioAssay (NCI).
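Assay format: 96-well plates, 48-hour exposure. Abbreviation: GI50, concentration required for 50% inhibition of growth. TGI marks complete inhibition of growth.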

What was measured:
Assay in all cases: DTP human tumour cell line panel, 48 h
HL-60(TB) leukemia = tested on: HL-60(TB) leukemia
LOX IMVI melanoma = tested on: LOX IMVI melanoma
786-0 renal = tested on: 786-0 renal
OVCAR-8 ovarian = tested on: OVCAR-8 ovarian
SN12C renal = tested on: SN12C renal
UO-31 renal = tested on: UO-31 renal
SW-620 colon = tested on: SW-620 colon
SK-MEL-2 melanoma = tested on: SK-MEL-2 melanoma
SK-MEL-28 melanoma = tested on: SK-MEL-28 melanoma
NCI/ADR-RES ovarian = tested on: NCI/ADR-RES ovarian
ACHN renal = tested on: ACHN renal
SNB-75 CNS = tested on: SNB-75 CNS
HCT-116 colon = tested on: HCT-116 colon
HCC-2998 colon = tested on: HCC-2998 colon
UACC-62 melanoma = tested on: UACC-62 melanoma
NCI-H226 lung = tested on: NCI-H226 lung
MOLT-4 leukemia = tested on: MOLT-4 leukemia
MDA-MB-231 breast = tested on: MDA-MB-231 breast
CCRF-CEM leukemia = tested on: CCRF-CEM leukemia
EKVX NSCLC = tested on: EKVX NSCLC
HT29 colon = tested on: HT29 colon
SK-OV-3 ovarian = tested on: SK-OV-3 ovarian
M14 melanoma = tested on: M14 melanoma
A549 NSCLC = tested on: A549 NSCLC
KM12 colon = tested on: KM12 colon
T-47D breast = tested on: T-47D breast
U251 CNS = tested on: U251 CNS

Q: With `Cc1nc2sc(C(=O)Nc3cccc4ccccc34)c(N)c2cc1C(=O)c1ccccc1` as the compound, how does the GI50 (HL-60(TB) leukemia) read?
A: 1450 nM

Q: What about the TGI (HL-60(TB) leukemia) of the same compound?
A: 4310 nM

Q: And the GI50 (LOX IMVI melanoma)?
A: 2560 nM

Q: And the TGI (LOX IMVI melanoma)?
A: > 50000 nM

Q: And the GI50 (786-0 renal)?
A: 2380 nM

Q: What about the TGI (786-0 renal) of the same compound?
A: > 50000 nM

Q: What about the GI50 (OVCAR-8 ovarian) of the same compound?
A: 2150 nM

Q: What about the TGI (OVCAR-8 ovarian) of the same compound?
A: > 50000 nM

Q: What about the GI50 (SN12C renal) of the same compound?
A: 2980 nM

Q: What about the TGI (SN12C renal) of the same compound?
A: > 50000 nM

Q: What about the GI50 (UO-31 renal) of the same compound?
A: 2110 nM

Q: What about the TGI (UO-31 renal) of the same compound?
A: > 50000 nM

Q: And the GI50 (SW-620 colon)?
A: 1710 nM

Q: And the TGI (SW-620 colon)?
A: > 50000 nM

Q: And the GI50 (SK-MEL-2 melanoma)?
A: 3920 nM

Q: And the TGI (SK-MEL-2 melanoma)?
A: > 50000 nM

Q: And the GI50 (SK-MEL-28 melanoma)?
A: 4950 nM

Q: What about the TGI (SK-MEL-28 melanoma) of the same compound?
A: > 50000 nM

Q: And the GI50 (NCI/ADR-RES ovarian)?
A: 1430 nM

Q: What about the TGI (NCI/ADR-RES ovarian) of the same compound?
A: > 50000 nM

Q: And the GI50 (ACHN renal)?
A: 2730 nM

Q: And the TGI (ACHN renal)?
A: > 50000 nM

Q: And the GI50 (SNB-75 CNS)?
A: 1040 nM

Q: What about the TGI (SNB-75 CNS) of the same compound?
A: > 50000 nM

Q: And the GI50 (HCT-116 colon)?
A: 1680 nM

Q: And the TGI (HCT-116 colon)?
A: > 50000 nM

Q: What about the GI50 (HCC-2998 colon) of the same compound?
A: 1520 nM

Q: What about the TGI (HCC-2998 colon) of the same compound?
A: > 50000 nM

Q: And the GI50 (UACC-62 melanoma)?
A: 2420 nM

Q: What about the TGI (UACC-62 melanoma) of the same compound?
A: > 50000 nM

Q: And the GI50 (NCI-H226 lung)?
A: 7710 nM

Q: What about the TGI (NCI-H226 lung) of the same compound?
A: > 50000 nM

Q: And the GI50 (MOLT-4 leukemia)?
A: 2270 nM

Q: What about the TGI (MOLT-4 leukemia) of the same compound?
A: > 50000 nM

Q: And the GI50 (MDA-MB-231 breast)?
A: 2190 nM

Q: What about the TGI (MDA-MB-231 breast) of the same compound?
A: > 50000 nM

Q: What about the GI50 (CCRF-CEM leukemia) of the same compound?
A: 1660 nM

Q: And the TGI (CCRF-CEM leukemia)?
A: > 50000 nM

Q: What about the GI50 (EKVX NSCLC) of the same compound?
A: 2950 nM

Q: And the TGI (EKVX NSCLC)?
A: > 50000 nM

Q: And the GI50 (HT29 colon)?
A: 1810 nM

Q: And the TGI (HT29 colon)?
A: > 50000 nM

Q: What about the GI50 (SK-OV-3 ovarian) of the same compound?
A: 1280 nM

Q: What about the TGI (SK-OV-3 ovarian) of the same compound?
A: > 50000 nM

Q: What about the GI50 (M14 melanoma) of the same compound?
A: 1230 nM

Q: What about the TGI (M14 melanoma) of the same compound?
A: > 50000 nM

Q: And the GI50 (A549 NSCLC)?
A: 403 nM

Q: What about the TGI (A549 NSCLC) of the same compound?
A: > 50000 nM

Q: What about the GI50 (KM12 colon) of the same compound?
A: 1860 nM

Q: What about the TGI (KM12 colon) of the same compound?
A: > 50000 nM

Q: What about the GI50 (T-47D breast) of the same compound?
A: 3640 nM

Q: What about the TGI (T-47D breast) of the same compound?
A: > 50000 nM

Q: And the GI50 (U251 CNS)?
A: 1970 nM

Q: And the TGI (U251 CNS)?
A: > 50000 nM
